Assay results: US20080113041A1, “CALCIUM SUPPLEMENTATION TO REDUCE PROSTATE CANCER RISK” (Trustees of Dartmouth College, priority 2001, published 2008)
Like-named read-outs stand apart in the source and are kept apart here.

Columns and labels:
[1] = tested on: prostate cancer; details: for men diagnosed with prostate cancer: 345 men randomized to calcium; for adjusted odds ratio for prostate cancer: calcium vs placebo, 1200 mg elemental calcium (as carbonate); for toxicity: four years of treatment, 3000 mg calcium carbonate
Protocol: To investigate this issue in a randomized study, we investigated the association between prostate cancer risk and treatment assignment in a large, double blind chemoprevention trial of calcium carbonate supplementation for the prevention of large bowel adenomas. Treatment was for four years in two randomized groups: placebo or 1200 mg elemental calcium (as carbonate).
The Calcium Polyp Prevention Study from which the data for this study were obtained involved six clinical centers: the Cleveland Clinic Foundation, Dartmouth-Hitchcock Medical Center, the University of Southern California/Southern California Permanente Medical Group, the University of Iowa, University of Minnesota, and the University of North Carolina Dartmouth was the coordinating center. Human subjects committees at each center approved the study protocol; an independent safety and data monitoring committee reviewed the study semi-annually.
Eligible patients were less than eighty years old, in good health, and without a history of familial polyposis, invasive large bowel cancer, malabsorption syndromes, or any condition which might be worsened by supplemental calcium. We aimed to randomize 860 subjects to have 80% power to detect a 25% reduction in […].
We reviewed data from 2,918 apparently eligible patients. […] We assigned these subjects to calcium or placebo using computer-generated random numbers, blocking by study center. […] Study tablets contained 3000 mg of calcium carbonate (1200 mg of elemental calcium); or, an identical-appearing cellulose/sucrose placebo. The trial was double-blind; neither subjects nor study staff were told the subjects' treatment assignments.
At enrollment and at the time of each of two follow-up colonoscopies, we obtained venous blood specimens in mineral-free tubes. Serum was initially stored at −20° C. or lower, pending shipment to Dartmouth for storage at −70° C. until analysis. At enrollment and the end of the study, we also assessed subjects' diet with a validated food frequency questionnaire (Block et al., Am. J. Epidemiol., 124:453-69, 1986). Every six months, we sent patients questionnaires regarding adherence to study agents; use of medications, over-the-counter drugs and nutritional supplements; and the occurrence of symptoms, illnesses, and hospitalizations. Recruitment into the study began in November 1988 and ended in April 1992. Follow-up ended in December 1996.
To summarize the association between prostate cancer and treatment assignment, we used Kaplan-Meier survival curves as well as odds ratios (OR's) and 95% CI's, computed using logistic regression with adjustment for age, clinical center, and baseline dietary calcium. OR's were calculated for the period from randomization to end of treatment and, to accommodate possible delays in cancer detection and/or latent treatment effects, for the period from randomization to end of treatment plus 12 months (i.e., five years).

[2] = tested on: colorectal adenomas; details: cited from earlier work
[3] = tested on: prostate cancer; details: adjuvant arm after prostatic and pelvic radiation therapy; T3, N0, or any T, N1, M0 disease; 71% on observation arm, p=0.52; cited from earlier work
[4] = 913 subjects with at least one study examination, calcium carbonate 3 gm daily vs placebo

| Compound | men diagnosed with prostate cancer ([1]; after five years of follow-up) [men] | men diagnosed with prostate cancer ([1]; after four years of follow-up) [men] | risk of prostate cancer ([1]; assignment to calcium supplementation vs placebo) | incidence of prostate cancer, Kaplan-Meier curves versus placebo ([1]; by year three of follow-up) | adjusted odds ratio for prostate cancer ([1]; five-year follow-up (end of treatment plus 12 months)) | toxicity [1] | toxicity ([1]; listed as calcium carbonate) | adjusted odds ratio for prostate cancer ([1]; four-year treatment period, adjusted for age, clinical center, baseline dietary calcium) | adjusted ratio of the average numbers of adenomas [2, 4] | adjusted risk ratio of any adenoma recurrence [2, 4] | toxicity associated with supplementation ([2]; calcium carbonate 3 gm daily) | actuarial overall 5-year survival rate [3] [%] |
| --- | --- | --- | --- | --- | --- | --- | --- | --- | --- | --- | --- | --- |
| O=C([O-])[O-].[Ca+2] [calcium, calcium carbonate] | 11 | 8 | statistically significant reduction | lower incidence | 0.43 | without toxicity | minimal | 0.54 | 0.76 | 0.85 | No toxicity | – |
| CC(C)C[C@H](NC(=O)[C@@H](COC(C)(C)C)NC(=O)[C@H](Cc1ccc(O)cc1)NC(=O)[C@H](CO)NC(=O)[C@H](Cc1c[nH]c2ccccc12)NC(=O)[C@H](Cc1cnc[nH]1)NC(=O)[C@@H]1CCC(=O)N1)C(=O)N[C@@H](CCCNC(=N)N)C(=O)N1CCC[C@H]1C(=O)NNC(N)=O [goserelin] | – | – | – | – | – | – | – | – | – | – | – | 75 |
